The source of these data is paper PMC10980815, “Cell surface patching via CXCR4-targeted nanothreads for cancer metastasis inhibition” (Nature Communications, 2024).

Assay in all cases: Dose-dependent chemokine receptor occupation assay
Format in all cases: binding, 4T1 murine cells

Test [1] deals with T1, CXCR5 (Mus musculus, UniProt Q04683).
T1 construct: endogenous in cells; host or cells: 4T1 murine breast cancer cells
T1 sequence (Q04683 1-374): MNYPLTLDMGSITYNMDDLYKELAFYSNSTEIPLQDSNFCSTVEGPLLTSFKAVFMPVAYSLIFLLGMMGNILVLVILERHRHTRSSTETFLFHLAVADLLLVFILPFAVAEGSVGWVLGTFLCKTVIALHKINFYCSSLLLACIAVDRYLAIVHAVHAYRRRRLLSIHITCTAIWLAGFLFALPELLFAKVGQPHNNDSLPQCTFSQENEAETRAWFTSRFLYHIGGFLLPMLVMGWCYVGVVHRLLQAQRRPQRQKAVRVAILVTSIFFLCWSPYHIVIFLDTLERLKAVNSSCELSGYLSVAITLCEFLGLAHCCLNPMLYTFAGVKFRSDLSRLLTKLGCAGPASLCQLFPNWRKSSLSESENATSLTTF
The conditions noted are these: 4T1 cells, 0.1 nM to 1 mM, 1 h. As for the experimental part: (§1) To validate the specificity of the BS (CXCR4-binding sequence) to CXCR4, a dose-dependent chemokine receptors occupation assay and a chemokine receptors competitive binding assay were conducted. […] Unoccupied chemokine receptors (CXCR4, CXCR7, CXCR2, CXCR5, and CCR4) on cell surface were stained with PE anti-human CD184/CXCR4 Antibody (1:300 dilution), anti-CXCR7-PE (1:300 dilution), anti-CXCR2-PE (1:300 dilution), anti-CXCR5-PE (1:300 dilution), and PE anti-human CD194/CCR4 Antibody (1:300 dilution) at 4 °C for 1 h, prior to flow cytometry analysis. In the chemokine receptors competitive binding assay, 4T1 cells (5 × 10^5 cells) were pre-blocked with PE anti-human CD184/CXCR4 Antibody (1:300 dilution), anti-CXCR7-PE (1:300 dilution), anti-CXCR2-PE (1:300 dilution), anti-CXCR5-PE (1:300 dilution), and PE anti-human CD194/CCR4 Antibody (1:300 dilution) at 4 °C for 1 h. Subsequently, these cells were treated with P-Cy5-BS-CM1-Cy5 (5 nM Cy5 equivalence) for 1 h. Following the treatments, cells were washed three times with PBS and subjected to flow cytometry analysis.

The target of test [2] is T2, CXCR2 (Mus musculus, UniProt P35343).
T2 construct: endogenous in cells; host or cells: 4T1 murine breast cancer cells
T2 sequence (P35343 1-359): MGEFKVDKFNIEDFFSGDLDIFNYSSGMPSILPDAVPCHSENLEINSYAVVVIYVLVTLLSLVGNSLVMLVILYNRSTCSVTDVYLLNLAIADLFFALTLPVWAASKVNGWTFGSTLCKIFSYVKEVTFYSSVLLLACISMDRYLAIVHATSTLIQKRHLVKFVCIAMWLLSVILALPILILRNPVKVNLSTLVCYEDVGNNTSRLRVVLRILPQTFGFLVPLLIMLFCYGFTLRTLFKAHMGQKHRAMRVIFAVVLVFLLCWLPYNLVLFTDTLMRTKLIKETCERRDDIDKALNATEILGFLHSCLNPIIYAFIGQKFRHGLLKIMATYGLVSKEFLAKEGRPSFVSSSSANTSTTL
The conditions noted are these: 4T1 cells, 0.1 nM to 1 mM, 1 h. The protocol:
as §1

For test [3], the target named is T3, CXCR7 (Mus musculus, UniProt P56485).
T3 construct: endogenous in cells; host or cells: 4T1 murine breast cancer cells
T3 sequence (P56485 whole entry): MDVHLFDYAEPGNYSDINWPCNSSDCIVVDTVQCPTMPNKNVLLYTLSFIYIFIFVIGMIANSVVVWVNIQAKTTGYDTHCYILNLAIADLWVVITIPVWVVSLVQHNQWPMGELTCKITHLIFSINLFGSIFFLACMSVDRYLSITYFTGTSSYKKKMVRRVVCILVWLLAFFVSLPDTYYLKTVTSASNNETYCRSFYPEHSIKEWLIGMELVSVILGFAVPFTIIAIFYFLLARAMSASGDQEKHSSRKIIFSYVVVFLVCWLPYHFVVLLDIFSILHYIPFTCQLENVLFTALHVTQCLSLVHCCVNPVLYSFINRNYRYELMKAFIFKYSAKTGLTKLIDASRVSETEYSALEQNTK
The conditions noted are these: 4T1 cells, 0.1 nM to 1 mM, 1 h. The protocol:
as §1

Test [4] concerns the target T4, CCR4 (Mus musculus, UniProt P51680).
T4 construct: endogenous in cells; host or cells: 4T1 murine breast cancer cells
T4 sequence (P51680 1-360): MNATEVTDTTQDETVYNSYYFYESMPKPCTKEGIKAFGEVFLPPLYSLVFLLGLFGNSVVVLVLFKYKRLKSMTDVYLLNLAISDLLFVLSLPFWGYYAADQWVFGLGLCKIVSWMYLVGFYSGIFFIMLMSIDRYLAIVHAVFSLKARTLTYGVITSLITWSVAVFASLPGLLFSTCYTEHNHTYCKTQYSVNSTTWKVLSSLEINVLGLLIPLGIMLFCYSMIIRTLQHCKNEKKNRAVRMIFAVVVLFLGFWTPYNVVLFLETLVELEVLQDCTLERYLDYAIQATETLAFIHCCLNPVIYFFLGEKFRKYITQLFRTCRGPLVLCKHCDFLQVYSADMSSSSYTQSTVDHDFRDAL
The conditions noted are these: 4T1 cells, 0.1 nM to 1 mM, 1 h. The protocol:
as §1

In test [5] the target is T5, CXCR4 (Mus musculus, UniProt P70658).
T5 construct: endogenous in cells; host or cells: 4T1 murine breast cancer cells
T5 sequence (P70658 whole entry): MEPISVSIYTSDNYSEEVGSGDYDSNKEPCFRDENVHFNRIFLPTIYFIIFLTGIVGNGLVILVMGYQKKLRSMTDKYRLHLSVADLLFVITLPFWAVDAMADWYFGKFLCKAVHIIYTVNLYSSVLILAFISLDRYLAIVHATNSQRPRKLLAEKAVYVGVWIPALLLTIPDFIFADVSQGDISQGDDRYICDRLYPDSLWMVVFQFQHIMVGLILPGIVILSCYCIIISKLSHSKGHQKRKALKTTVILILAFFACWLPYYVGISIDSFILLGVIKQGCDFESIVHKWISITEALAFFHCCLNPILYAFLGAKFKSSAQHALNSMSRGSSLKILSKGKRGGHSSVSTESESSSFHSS
The conditions noted are these: 4T1 cells, 0.1 nM to 1 mM, 25 °C, 1 h; unoccupied receptor stained with PE antibody. As for the experimental part:
as §1

Take LGASWHRPDKCCLGYQKRPLPA [Free BS]: in test [1], the CXCR5 occupation entry was “did not occupy”. Also, the CXCR2 occupation entry in test [2] is on record as “did not occupy”. The CXCR7 occupation entry in test [3] is “did not occupy”. Also, the CCR4 occupation result in test [4] is recorded as “did not occupy”. Also, the CXCR4 occupation entry in test [5] is listed as “comparable CXCR4 occupation to AMD3100”.
